Results on one molecule are retold here after publication PMC12025681, “Repositioning Fluoxetine as a TRPV3 Channel Inhibitor to Alleviate Skin Inflammation and Pruritus” (Current Issues in Molecular Biology, 2025).

For one assay, the target named is T1, human TRPV3 (hTRPV3) (Homo sapiens, UniProt Q8NET8).
T1 sequence (Q8NET8 1-790): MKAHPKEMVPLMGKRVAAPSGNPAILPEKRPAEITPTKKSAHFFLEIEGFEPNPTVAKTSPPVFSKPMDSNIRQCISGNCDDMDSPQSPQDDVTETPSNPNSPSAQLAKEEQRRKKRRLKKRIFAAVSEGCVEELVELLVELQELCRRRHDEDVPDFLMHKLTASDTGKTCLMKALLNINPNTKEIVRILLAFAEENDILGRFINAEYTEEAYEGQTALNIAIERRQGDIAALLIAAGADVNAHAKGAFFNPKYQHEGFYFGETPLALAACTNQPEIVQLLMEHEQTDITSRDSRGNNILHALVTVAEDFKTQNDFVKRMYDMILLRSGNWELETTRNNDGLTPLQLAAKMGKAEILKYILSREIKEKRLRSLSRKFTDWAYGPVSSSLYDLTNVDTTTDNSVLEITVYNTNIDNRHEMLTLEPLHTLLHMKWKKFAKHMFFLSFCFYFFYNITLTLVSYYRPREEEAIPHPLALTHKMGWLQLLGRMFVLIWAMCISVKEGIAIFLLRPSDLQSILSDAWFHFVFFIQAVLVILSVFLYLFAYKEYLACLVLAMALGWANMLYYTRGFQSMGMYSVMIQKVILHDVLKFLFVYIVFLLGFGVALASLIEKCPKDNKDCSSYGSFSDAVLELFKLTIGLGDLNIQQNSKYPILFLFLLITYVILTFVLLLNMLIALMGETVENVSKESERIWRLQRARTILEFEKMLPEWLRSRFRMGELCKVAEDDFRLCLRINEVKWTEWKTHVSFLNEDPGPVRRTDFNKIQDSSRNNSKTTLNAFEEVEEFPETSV
Briefly: whole-cell patch clamp and inside-out single-channel recording in transfected HEK293T cells (2-APB-evoked currents). It is filed as cell-based.

In another assay the target is TRPM8 (hTRPM8) (Homo sapiens, UniProt Q7Z2W7). Briefly: whole-cell patch clamp in transfected HEK293T cells (menthol-evoked currents). It is filed as cell-based. On the technique in general: The patch-clamp technique gives a direct electrical read-out from membranes.
Chain of TRPM8 (hTRPM8) (Q7Z2W7 whole entry): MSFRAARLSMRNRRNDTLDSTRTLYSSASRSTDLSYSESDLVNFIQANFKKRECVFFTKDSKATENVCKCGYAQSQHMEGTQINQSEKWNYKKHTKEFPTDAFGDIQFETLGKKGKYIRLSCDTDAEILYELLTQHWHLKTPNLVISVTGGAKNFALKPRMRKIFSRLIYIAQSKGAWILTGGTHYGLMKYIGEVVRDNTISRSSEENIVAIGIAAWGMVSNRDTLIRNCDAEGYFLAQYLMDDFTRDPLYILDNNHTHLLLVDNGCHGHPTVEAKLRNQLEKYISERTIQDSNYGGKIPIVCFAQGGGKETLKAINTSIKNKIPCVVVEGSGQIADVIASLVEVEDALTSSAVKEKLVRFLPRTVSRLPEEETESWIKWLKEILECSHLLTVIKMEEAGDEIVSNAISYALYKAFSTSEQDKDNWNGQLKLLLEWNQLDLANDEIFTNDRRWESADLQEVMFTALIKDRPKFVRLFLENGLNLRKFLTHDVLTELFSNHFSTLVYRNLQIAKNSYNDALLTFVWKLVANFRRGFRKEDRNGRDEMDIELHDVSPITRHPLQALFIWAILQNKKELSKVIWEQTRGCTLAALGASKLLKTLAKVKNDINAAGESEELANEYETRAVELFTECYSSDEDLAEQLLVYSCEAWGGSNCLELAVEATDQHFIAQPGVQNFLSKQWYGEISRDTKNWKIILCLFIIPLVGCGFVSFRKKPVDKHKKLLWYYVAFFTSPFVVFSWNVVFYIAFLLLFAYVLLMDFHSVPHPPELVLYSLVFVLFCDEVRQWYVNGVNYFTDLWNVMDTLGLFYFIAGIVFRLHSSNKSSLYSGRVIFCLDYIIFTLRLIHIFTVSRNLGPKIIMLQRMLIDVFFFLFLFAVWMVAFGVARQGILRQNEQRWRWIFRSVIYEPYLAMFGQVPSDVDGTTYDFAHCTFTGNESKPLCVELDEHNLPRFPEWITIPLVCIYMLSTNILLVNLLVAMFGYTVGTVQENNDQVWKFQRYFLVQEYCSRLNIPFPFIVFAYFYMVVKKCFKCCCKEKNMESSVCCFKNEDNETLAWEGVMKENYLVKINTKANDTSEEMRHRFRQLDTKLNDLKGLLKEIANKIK

As usually defined, the IC50 is the concentration that gives 50% inhibition. Read a low IC50 as higher potency. Turning to `CNCCC(Oc1ccc(C(F)(F)F)cc1)c1ccccc1` (centres unmarked) [FLX, Fluoxetine], the results for the 50% inhibitory concentration (IC50) at human TRPV3 (hTRPV3) and against TRPM8 (hTRPM8) were 10.2 ± 2.34 µM and 20 ± 3.3 µM, respectively.
